From patent publication US6949545B2, “Heterocyclic side chain containing, n-substituted metalloprotease inhibitors” (The Procter & Gamble Company, priority 2000, dated 2005) come the findings set out here.

In the assay the test system is asthma sufferer. Description: Example E: inhalation aerosol for asthma. The format is in vivo, human. The note with it: 5.0% w/v aerosol, 0.01 mL sprayed into the mouth while inhaling. As for the experimental part: An inhalation aerosol composition, according to the present invention, is made comprising: An asthma sufferer sprays 0.01 mL via a pump actuator into the mouth while inhaling.

Each structure is given as a SMILES string.

For the compound `COc1ccc(-c2ccc(S(=O)(=O)N(C)C(C(=O)O)C3CCN(CCc4ccccc4)CC3)cc2)cc1` (stereo not shown) [Example 17, [(4′-Methoxy-biphenyl-4-sulfonyl)-methyl-amino]-(1-phenethyl-piperidin-4-yl)-acetic Acid], the asthma symptoms result is given as “Asthma symptoms are diminished”.
